Experiments:
sGC = target: T1, sGC (Rattus norvegicus, UniProt P20595); assay: Action at a recombinant guanylate cyclase reporter cell line (CHO reporter cell); type: cell-based; details: CHO reporter cell in vitro
T1 construct: expressed in transfected cells; host or cells: CHO reporter cell
Protocol: The cellular action of the compounds according to the invention is determined at a recombinant guanylate cyclase reporter cell line, as described in F. Wunder et al., Anal. Biochem. 339, 104-112 (2005).

[1] = target: T2, soluble guanylate cyclase (sGC) (Rattus norvegicus, UniProt P20595); assay: Stimulation of sGC enzyme activity (PPi detection, luciferase); type: biochemical; details: sGC enzyme in vitro; for EC50: read-out: EC50 (concentration at 50% of maximum efficacy), activating action at the sGC enzyme
T2 construct: made in house; host or cells: Sf9 insect cells (baculovirus)
Outline: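 Rat sGC (0-10 nM) preincubated with compound 10 min at room temperature in TEA/MgCl2 buffer pH 7.5; reaction started with GTP, PPi measured continuously by luciferase luminescence. Stimulation expressed relative to unstimulated reaction; haem-free enzyme made by 30 min with 25 μM ODQ.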

Haem-containing sGC = target: T3, Haem-containing sGC (Rattus norvegicus, UniProt P20595); assay: Stimulation of recombinant soluble guanylate cyclase (sGC) in vitro, haem-containing enzyme; type: biochemical
T3 construct: made in house; host or cells: Sf9 insect cells (baculovirus)
Excerpt: Hoenicka, E. M. Becker, H. Apeler, T. Sirichoke, H. Schroeder, R. Gerzer and J.-P. Stasch, “Purified soluble guanylyl cyclase expressed in a baculovirus/Sf9 system: Stimulation by YC-1, nitric oxide, and carbon oxide”, J. Mol. Med. 77 (1999), 14-23. The haem-free guanylate cyclase is obtained by adding Tween 20 to the sample buffer (0.5% in the final concentration).
(§1) The activation of sGC by a test substance is reported as x-fold stimulation of the basal activity.

Haem-free sGC = target: T4, Haem-free sGC (Rattus norvegicus, UniProt P20595); assay: Stimulation of recombinant soluble guanylate cyclase (sGC) in vitro, haem-free enzyme; type: biochemical
T4 construct: made in house; host or cells: Sf9 insect cells (baculovirus)
Protocol: Investigations on the stimulation of recombinant soluble guanylate cyclase (sGC) by the compounds according to the invention with and without sodium nitroprusside, and with and without the haem-dependent sGC inhibitor 1H-1,2,4-oxadiazolo[4,3a]quinoxalin-1-one (ODQ), are carried out by the method described in detail in the following reference: M. Hoenicka, E. M. Becker, H. Apeler, T. Sirichoke, H. Schroeder, R. Gerzer and J.-P. Stasch, “Purified soluble guanylyl cyclase expressed in a baculovirus/Sf9 system: Stimulation by YC-1, nitric oxide, and carbon oxide”, J. Mol. Med. 77 (1999), 14-23. The haem-free guanylate cyclase is obtained by adding Tween 20 to the sample buffer (0.5% in the final concentration).
as §1

T2 sequence (P19686 whole entry partner): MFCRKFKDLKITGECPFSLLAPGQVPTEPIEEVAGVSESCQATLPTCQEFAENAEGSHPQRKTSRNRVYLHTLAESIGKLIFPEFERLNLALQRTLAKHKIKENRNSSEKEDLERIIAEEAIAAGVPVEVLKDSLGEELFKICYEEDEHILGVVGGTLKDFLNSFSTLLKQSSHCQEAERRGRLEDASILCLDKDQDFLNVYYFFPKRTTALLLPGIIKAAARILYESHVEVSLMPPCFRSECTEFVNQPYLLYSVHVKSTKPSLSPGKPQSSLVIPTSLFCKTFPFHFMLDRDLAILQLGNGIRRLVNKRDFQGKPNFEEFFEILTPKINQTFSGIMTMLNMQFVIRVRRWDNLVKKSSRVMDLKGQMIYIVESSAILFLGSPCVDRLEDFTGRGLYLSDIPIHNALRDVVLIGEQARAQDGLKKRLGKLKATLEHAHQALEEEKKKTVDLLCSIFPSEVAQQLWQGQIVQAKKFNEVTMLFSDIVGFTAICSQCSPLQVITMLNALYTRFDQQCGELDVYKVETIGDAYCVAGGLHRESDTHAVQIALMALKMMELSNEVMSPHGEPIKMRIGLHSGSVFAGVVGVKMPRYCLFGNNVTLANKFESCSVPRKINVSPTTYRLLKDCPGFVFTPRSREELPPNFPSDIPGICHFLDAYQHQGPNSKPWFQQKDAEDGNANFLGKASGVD
T2 sequence (P20595 whole entry): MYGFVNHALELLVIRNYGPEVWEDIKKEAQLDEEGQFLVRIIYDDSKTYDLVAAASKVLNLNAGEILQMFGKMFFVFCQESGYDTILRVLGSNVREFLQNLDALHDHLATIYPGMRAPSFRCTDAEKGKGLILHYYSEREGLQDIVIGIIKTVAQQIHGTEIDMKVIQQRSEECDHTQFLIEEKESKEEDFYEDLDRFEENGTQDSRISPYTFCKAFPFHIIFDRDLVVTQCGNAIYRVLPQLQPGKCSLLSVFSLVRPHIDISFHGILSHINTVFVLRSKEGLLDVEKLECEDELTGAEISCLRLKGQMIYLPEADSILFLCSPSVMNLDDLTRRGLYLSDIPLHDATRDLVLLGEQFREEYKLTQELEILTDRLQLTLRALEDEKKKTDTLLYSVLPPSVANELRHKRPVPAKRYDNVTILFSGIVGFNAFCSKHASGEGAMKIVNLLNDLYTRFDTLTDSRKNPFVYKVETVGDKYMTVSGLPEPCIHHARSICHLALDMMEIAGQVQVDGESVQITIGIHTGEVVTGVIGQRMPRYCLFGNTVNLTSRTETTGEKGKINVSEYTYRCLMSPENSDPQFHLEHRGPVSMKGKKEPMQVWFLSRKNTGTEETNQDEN
T1 sequence (P19686 whole entry partner): as the sequence (P19686 whole entry partner) above
T1 sequence (P20595 whole entry): as the sequence (P20595 whole entry) above
T3 sequence (P19686 whole entry partner): as the sequence (P19686 whole entry partner) above
T3 sequence (P20595 whole entry): as the sequence (P20595 whole entry) above
T4 sequence (P19686 whole entry partner): as the sequence (P19686 whole entry partner) above
T4 sequence (P20595 whole entry): as the sequence (P20595 whole entry) above

| MEC (minimum effective concentration), sGC-activating activity in the CHO reporter cell (sGC) | MEC (minimum effective concentration), activating action at the sGC enzyme [1] | EC50 [1] | Stimulation (x-fold) of recombinant sGC, +0.01 μM DEA/NO (Haem-containing sGC; test substance 0.01 μM) | Stimulation (x-fold) of recombinant sGC, +0.01 μM DEA/NO (Haem-containing sGC; test substance 0.1 μM) | Stimulation (x-fold) of recombinant sGC, +0.01 μM DEA/NO (Haem-containing sGC; test substance 1.0 μM) | Stimulation (x-fold) of recombinant sGC, +0.01 μM DEA/NO (Haem-containing sGC; test substance 10 μM) | Stimulation (x-fold) of recombinant sGC, +10 μM ODQ (Haem-containing sGC; test substance 0.01 μM) | Stimulation (x-fold) of recombinant sGC, +10 μM ODQ (Haem-containing sGC; test substance 0.1 μM) | Stimulation (x-fold) of recombinant sGC, +10 μM ODQ (Haem-containing sGC; test substance 1.0 μM) | Stimulation (x-fold) of recombinant sGC, +10 μM ODQ (Haem-containing sGC; test substance 10 μM) | Effect of combination with DEA/NO (NO donor) on sGC stimulation (Haem-containing sGC) | Stimulation (x-fold) of recombinant sGC, Basal (Haem-containing sGC; test substance 0.01 μM) | Stimulation (x-fold) of recombinant sGC, Basal (Haem-containing sGC; test substance 0.1 μM) | Stimulation (x-fold) of recombinant sGC, Basal (Haem-containing sGC; test substance 1.0 μM) | Stimulation (x-fold) of recombinant sGC, Basal (Haem-containing sGC; test substance 10 μM) | Stimulation (x-fold) of recombinant sGC, Basal (Haem-free sGC; test substance 0.01 μM) | Stimulation (x-fold) of recombinant sGC, Basal (Haem-free sGC; test substance 0.1 μM) | Stimulation (x-fold) of recombinant sGC, Basal (Haem-free sGC; test substance 1.0 μM) | Stimulation (x-fold) of recombinant sGC, Basal (Haem-free sGC; test substance 10 μM) | SMILES | also measured |
| --- | --- | --- | --- | --- | --- | --- | --- | --- | --- | --- | --- | --- | --- | --- | --- | --- | --- | --- | --- | --- | --- |
| 0.3 nM | 0.7 nM | 4.6 nM |  |  |  |  |  |  |  |  |  |  |  |  |  |  |  |  |  | CCOC(c1ccc(Cl)c(NC(=O)[C@H](c2ccc(Cl)cc2)[C@@H](C)C(F)(F)F)c1)C1(C(=O)O)CC1 (single isomer, unassigned) [Example 101] |  |
| 1 nM | 4.1 nM | 53 nM | 4.0 ± 0.6 x-fold | 4.4 ± 0.8 x-fold | 5.0 ± 1.7 x-fold | 5.3 ± 1.8 x-fold | 4.3 ± 0.4 x-fold | 5.7 ± 0.3 x-fold | 9.2 ± 0.9 x-fold | 10.3 ± 1.3 x-fold | no synergistic effect | 1.0 ± 0.0 x-fold | 1.5 ± 0.2 x-fold | 1.8 ± 0.3 x-fold | 2.6 ± 0.4 x-fold | 2.0 ± 0.4 x-fold | 5.2 ± 0.8 x-fold | 14.9 ± 2.2 x-fold | 19.4 ± 2.8 x-fold | [2H]C([2H])([2H])OC(c1ccc(Cl)c(NC(=O)[C@H](c2ccc(Cl)cc2)[C@@H](C)C(F)(F)F)c1)C1(C(=O)O)CC1 (single isomer, unassigned; (+)) [Example 99] |  |
| 0.3 nM | 0.6 nM | 7.6 nM |  |  |  |  |  |  |  |  |  |  |  |  |  |  |  |  |  | C[C@H]([C@H](C(=O)Nc1cc(CC2(C(=O)O)CC2)ccc1Cl)c1ccc(Cl)c(F)c1)C(F)(F)F [Example 30, (+)-1-(4-chloro-3-{[(2S,3R)-2-(4-chloro-3-fluoro-phenyl)-4,4,4-trifluoro-3-methylbutanoyl]amino}-benzyl)cyclopropanecarboxylic acid] |  |
| 0.4 nM | 0.7 nM | 7.3 nM | 7.5 ± 1.8 x-fold | 7.6 ± 1.8 x-fold | 9.0 ± 2.0 x-fold | 13.3 ± 2.2 x-fold | 9.2 ± 1.4 x-fold | 9.6 ± 1.5 x-fold | 12.7 ± 1.5 x-fold | 21.5 ± 2.2 x-fold | no synergistic effect | 1.4 ± 0.1 x-fold | 1.2 ± 0.1 x-fold | 2.6 ± 0.4 x-fold | 6.4 ± 0.6 x-fold | 2.6 ± 0.8 x-fold | 7.1 ± 2.4 x-fold | 27.2 ± 7.4 x-fold | 41.2 ± 9.8 x-fold | C[C@H]([C@H](C(=O)Nc1cc(CC2(C(=O)O)CC2)ccc1Cl)c1ccc(Cl)cc1)C(F)(F)F [Example 50, (+)-1-(4-Chloro-3-{[(2S,3R)-2-(4-chlorophenyl)-4,4,4-trifluoro-3-methylbutanoyl]amino}benzyl)-cyclopropanecarboxylic acid] | Stimulation (x-fold) of recombinant sGC, +0.01 μM DEA/NO (Haem-containing sGC; test substance 100 μM): 14.6 ± 2.2 x-fold; Stimulation (x-fold) of recombinant sGC, +10 μM ODQ (Haem-containing sGC; test substance 100 μM): 22.6 ± 2.6 x-fold; Stimulation (x-fold) of recombinant sGC, Basal (Haem-containing sGC; test substance 100 μM): 9.5 ± 0.9 x-fold; Stimulation (x-fold) of recombinant sGC, Basal (Haem-free sGC; test substance 100 μM): 39.0 ± 9.1 x-fold |
